Among the data in PubChem BioAssay AID2060889 (Molecular Pharmacology Branch, DTP, NCI, 2025) are viability, T/C and IC50 values, retold here.

Values joined by “and” are separate entries in the source; they are usually repeats but may differ in a detail not shown here. Equal values may be shown once.

The test concerns LG0567-F671-PDC complex spheroids viability. As to the kind of experiment: Anticancer human tumor LG0567-F671-PDC patient-derived lung adenocarcinoma cell line growth inhibition [RAS]. The note with it: for viability, T/C: stronger effect = lower value. From the text: RAS pathway inhibitors in Combinations in Complex Spheroids
A high-throughput screen of multi-cell type tumor spheroids was designed to identify active combinations of RAS pathway inhibitors and targeted small molecules. Complex spheroids include a stromal component modeled by human endothelial cells (HUVEC) and fibroblasts modeled by human mesenchymal stem cells (MSCs). The concentration ranges selected for each drug and investigational agent were based upon clinically achievable concentrations if the clinical Cmax of the agent was known.
Compounds. The drugs and investigational agents: abemaciclib (NSC768073), cobimetinib (NSC768068), divarasib (GDC6063, NSC841802), docetaxel (NSC628503), GDC-1971 (RLY-1971, NSC841576), gemcitabine (NSC613327), inavolisib (NSC800729), ipatasertib (NSC767898), KB-0742 (NSC834161), MRTX-1133 (NSC836407), osimertinib (NSC779217), RMC-4630 (NSC839698), RMC-6236 (NSC851965), RMC-6291 (NSC852671), Ro-3306 (NSC812927), sapanisertib (NSC764658), SN-38 (NSC673596), staurosporine (NSC755774), SY5609 (NSC837396), and tovorafenib (DAY101, NSC766906), were obtained from the National Cancer Institute (NCI) Developmental Therapeutics Program Chemical Repository. The FDA-approved anticancer drug set is available from the NCI Developmental Therapeutics Program. […] The stock solutions were prepared in dimethyl sulfoxide (DMSO, Sigma-Aldrich, St. Louis, MO, cat. D2650) at 800-fold the tested concentration and stored at -70 degrees C prior to their use. All drugs and investigational agents were tested over a range starting from a high concentration at or near the clinical Cmax and decreasing in half-log increments. If the clinical Cmax for an agent had not been determined, the highest concentration tested was 10 microM.
Cell Culture. All cells were maintained in an incubator at 37 degrees C and 5% CO2 with 95% humidity. The PDC lines were cultured according to standard operating procedures established by the NCI PDMR. All PDCs were thawed and cultured in Matrigel-coated flasks prepared with a working solution of 1X Ham's F-12 nutrient mix, without supplementation (Invitrogen, Waltham, MA, cat. 11765054), 100 U/mL penicillin-streptomycin (Invitrogen, cat. 15140122), and 2.5% Matrigel (Corning Inc., Corning, NY, cat. 354248) for the first three passages. The 362531-283-R-J2-PDC and 782815-120-R-J1-PDC lines were cultured in 6C/Colon 1B media, which includes advanced DMEM/F-12 (Thermo Fisher Scientific, cat. 12634028), 10 mM HEPES (Thermo Fisher Scientific, cat. 15630080), 1X GlutaMAX supplement (Thermo Fisher Scientific, cat. 35050061), 0.1 mg/mL primocin (InvivoGen, San Diego, CA, cat. ant-pm-2), 10% defined fetal bovine serum, heat inactivated (HyClone Laboratories Inc., Logan, UT, cat. SH30070.03HI), 50% L-WRN conditioned media (ATCC, cat. CRL-3276), 1.25 mM N-Acetyl-L-cysteine (Sigma-Aldrich, cat. A9165), 10 mM nicotinamide (Sigma-Aldrich, cat. N0636), 1X B-27 supplement (Thermo Fisher Scientific, cat. 17504044), 1X N-2 supplement (Thermo Fisher Scientific, cat. 17502048), 50 ng/mL human EGF (Thermo Fisher Scientific, cat. PHG0311), and 10 microM Y-27632 dihydrochloride (Tocris Bioscience, cat. 1254). The K12877-001-R-J1-PDC line was cultured in 6I media, which includes all 6C/Colon 1B media plus 10 ng/mL human FGF-10 (PeproTech, cat. 100-26), 1 ng/mL human FGF-2 (PeproTech, cat. 100-18B), 1 µM prostaglandin E2 (Tocris Bioscience, cat. 2296), […] hydrocortisone (Sigma-Aldrich, cat. H4001), and […] bovine insulin (Sigma-Aldrich, cat. I6634). The K86415-001-R-J1-PDC line was cultured in 6D media, which includes all 6C/Colon 1B media components minus the L-WRN conditioned media. The 485176-168-R4-J1-PDC was cultured in PANC media, which includes all 6C/Colon 1B media plus 100 ng/mL human FGF-10 (PeproTech, cat. 100-26), 500 nM SB-431542 (Selleckchem, cat. S1067), and 10 nM gastrin (Tocris Bioscience, cat. 3006). […]

[1] abbreviates: compound alone, run of 09/09/2024.
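Note: spheroids exposed to compound for seven days before readout.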
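Throughout, for IC50: luminescence signal used as a proxy for viable cells.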

As for `C#Cc1c(F)ccc2cc(O)cc(-c3ncc4c(N5CC6CCC(C5)N6)nc(OCC56CCCN5CC(F)C6)nc4c3F)c12` (stereo unspecified), the viability, T/C is, setting by setting: (compound 0.0316 µM) 91.2% [middle of 8 runs]; (compound 0.1 µM) 80% [middle of 8 runs]; (compound 0.316 µM) 56.1% [middle of 8 runs]; (compound 1 µM) 36.8% [middle of 8 runs]; (compound 3.16 µM) 19.6% [middle of 8 runs]; (compound 10 µM) 12.4% [middle of 8 runs]. Moreover, the IC50 under setting [1] is 494 nM [middle of 8 runs].
In the case of `C=CC(=O)N1CCN(c2nc(OCC3CCCN3C)nc3c(F)c(-c4nc(N)cc(C)c4C(F)(F)F)c(Cl)cc23)C(C)C1` (stereo unspecified), the viability, T/C is, setting by setting: (compound 0.00316 µM) 16.6% [middle of 12 runs]; (compound 0.01 µM) 14.1% [middle of 12 runs]; (compound 0.0316 µM) 13.4% [middle of 12 runs]; (compound 0.1 µM) 13.5% [middle of 12 runs]; (compound 0.316 µM) 13.8% [middle of 12 runs]; (compound 1 µM) 15.5% [middle of 12 runs]. Further, the half-inhibitory concentration (IC50) was less than 3.16 nM under setting [1] and less than 3.16 nM (curve of compound).
On to `C=CC(=O)Nc1cc(Nc2nccc(-c3cn(C)c4ccccc34)n2)c(OC)cc1N(C)CCN(C)C`, for which the viability, T/C was 92.5% [middle of 4 runs] (compound 0.01 µM); 86% [middle of 4 runs] (compound 0.0316 µM); 68.7% [middle of 4 runs] (compound 0.1 µM); 42.7% [middle of 4 runs] (compound 0.316 µM); 23.2% [middle of 4 runs] (compound 1 µM). Further, the IC50 (curve of compound) is 225 nM [middle of 4 runs].
On to `CC(C)NCC(C(=O)N1CCN(c2ncnc3c2C(C)CC3O)CC1)c1ccc(Cl)cc1` (stereo unspecified), for which the viability, T/C runs as follows: (compound 0.0316 µM) 101% [middle of 4 runs]; (compound 0.1 µM) 91.3% [middle of 4 runs]; (compound 0.316 µM) 77.4% [middle of 4 runs]; (compound 1 µM) 61.6% [middle of 4 runs]; (compound 10 µM) 63.5% [middle of 4 runs]. Moreover, the IC50 (curve of compound) was greater than 10000 nM.
Turning to `CC(C)n1nc(-c2ccc3oc(N)nc3c2)c2c(N)ncnc21`, the viability, T/C was 90.9% [middle of 4 runs] (compound 0.000316 µM); 88.4% [middle of 4 runs] (compound 0.001 µM); 86.1% [middle of 4 runs] (compound 0.00316 µM); 75.3% [middle of 4 runs] (compound 0.01 µM); 56.1% [middle of 4 runs] (compound 0.0316 µM).
In the case of `CC(Nc1ccc2c(c1)OCCn1cc(N3C(=O)OCC3C(F)F)nc1-2)C(N)=O` (stereo unspecified), the viability, T/C by setting is: (compound 0.0316 µM) 79.5% [middle of 4 runs]; (compound 0.1 µM) 63.3% [middle of 4 runs]; (compound 0.316 µM) 52.5% [middle of 4 runs]; (compound 1 µM) 43.4% [middle of 4 runs]; (compound 3.16 µM) 33.8% (2×) and 32.1% and 37.8%; (compound 10 µM) 30.5% [middle of 4 runs]. The IC50 (curve of compound) is 386 nM [middle of 4 runs].
Consider `CC1(C)CCC(Nc2ncc(C(F)(F)F)c(-c3c[nH]c4c(P(C)(C)=O)c(C#N)ccc34)n2)CN1` (stereo unspecified), for which the viability, T/C is 61.7% [middle of 4 runs] (compound 0.003 µM); 58.9% [middle of 4 runs] (compound 0.00949 µM); 58.4% [middle of 4 runs] (compound 0.03 µM); 60.6% [middle of 4 runs] (compound 0.0949 µM); 58% [middle of 4 runs] (compound 0.3 µM).
For `CCN1CCN(Cc2ccc(Nc3ncc(F)c(-c4cc(F)c5nc(C)n(C(C)C)c5c4)n3)nc2)CC1`, the viability, T/C was 94.3% [middle of 4 runs] (compound 0.00316 µM); 85% [middle of 4 runs] (compound 0.01 µM); 82.3% [middle of 4 runs] (compound 0.0316 µM); 80.7% [middle of 4 runs] (compound 0.1 µM); 75.6% [middle of 4 runs] (compound 0.316 µM); 67% [middle of 4 runs] (compound 1 µM). Also, under “curve of compound”, the IC50 was greater than 1000 nM.
With `CCc1c2c(nc3ccc(O)cc13)-c1cc3c(c(=O)n1C2)COC(=O)[C@]3(O)CC`, the viability, T/C was 93.3% [middle of 4 runs] (compound 0.000949 µM); 79% [middle of 4 runs] (compound 0.003 µM); 65.1% [middle of 4 runs] (compound 0.00949 µM); 48.5% [middle of 4 runs] (compound 0.03 µM); 27.1% [middle of 4 runs] (compound 0.0949 µM); 7.59% [middle of 4 runs] (compound 0.3 µM). The IC50 (curve of compound) was 26.9 nM [middle of 4 runs].
With `CCn1c(-c2cc(N3CCN(C)CC3)cnc2C(C)OC)c2c3cc(ccc31)-c1csc(n1)CC(NC(=O)C1CC1C)C(=O)N1CCCC(N1)C(=O)OCC(C)(C)C2` (stereo unspecified), the viability, T/C (compound 0.000949 µM) is 25.7% [middle of 8 runs]; the viability, T/C (compound 0.003 µM) is 11.3% [middle of 8 runs]; the viability, T/C (compound 0.00949 µM) was 6.53% [middle of 8 runs]; the viability, T/C (compound 0.03 µM) is 4.27% [middle of 8 runs]; the viability, T/C (compound 0.0949 µM) is 3.45% [middle of 8 runs]; the viability, T/C (compound 0.3 µM) is 2.94% [middle of 8 runs]. In addition, where the note is “compound alone, run of 08/26/2024”, the IC50 is less than 0.949 nM.
In the case of `CCn1c(-c2cccnc2C(C)OC)c2c3cc(ccc31)N1CCOC(CC(NC(=O)C(C(C)C)N(C)C(=O)C3(F)CCN(C(=O)C#CC(C)(C)N(C)C)CC3)C(=O)N3CCCC(N3)C(=O)OCC(C)(C)C2)C1` (stereo unspecified), the viability, T/C (compound 0.000949 µM) is 15.2% [middle of 8 runs]; the viability, T/C (compound 0.003 µM) is 15% [middle of 8 runs]; the viability, T/C (compound 0.00949 µM) was 15.1% [middle of 7 runs]; the viability, T/C (compound 0.03 µM) is 13.5% [middle of 8 runs]; the viability, T/C (compound 0.0949 µM) was 12.2% [middle of 8 runs]; the viability, T/C (compound 0.3 µM) was 10.3% [middle of 8 runs]. Further, for the setting “compound alone, run of 08/20/2024”, the IC50 was less than 0.949 nM.
`Nc1ccn(C2OC(CO)C(O)C2(F)F)c(=O)n1` (stereo unspecified): the viability, T/C was 93.3% [middle of 4 runs] (compound 0.00316 µM); 81% [middle of 4 runs] (compound 0.01 µM); 79.1% [middle of 4 runs] (compound 0.0316 µM); 71.7% [middle of 4 runs] (compound 0.1 µM); 69.5% [middle of 4 runs] (compound 0.316 µM); 61.7% [middle of 4 runs] (compound 1 µM). Besides, under “curve of compound”, the IC50 is greater than 1000 nM.
On to `O=C(c1ccc(F)c(F)c1Nc1ccc(I)cc1F)N1CC(O)([C@@H]2CCCCN2)C1`, for which the viability, T/C runs as follows: (compound 0.00316 µM) 85.1% [middle of 4 runs]; (compound 0.01 µM) 58.9% [middle of 4 runs]; (compound 0.0316 µM) 39.8% [middle of 4 runs]; (compound 0.1 µM) 24% [middle of 4 runs]; (compound 0.316 µM) 11.1% [middle of 4 runs]; (compound 1 µM) 3.21% [middle of 4 runs]. Also, the concentration for half-maximal inhibition (IC50) (curve of compound) is 17.3 nM [middle of 4 runs].

For orientation: viability, T/C means the ratio of treated to control. Usually IC50 stands for the point on the concentration scale where inhibition reaches its midpoint.
